Calls of active or inactive are those of the source. The rule behind the calls is not given here.
Legend:
[1] = system: HeLa; assay: Phototoxicity against human HeLa cells assessed as surviving fraction at 12 uM under LED array light by MTT assay; format: functional
[2] = system: HaCaT; assay: Phototoxicity against human HaCaT cells assessed as surviving fraction at 12 uM under LED array light; format: functional
[3] = system: HeLa; assay: Phototoxicity against human HeLa cells assessed as surviving fraction at 2.4 uM under LED array light; format: functional
[4] = system: HeLa; assay: Phototoxicity against human HeLa cells assessed as surviving fraction at 0.25 uM irradiated with 9.15 mW/cm'2 light for 5 mins by MTT assay; format: functional
[5] = system: HaCaT; assay: Phototoxicity against human HaCaT cells assessed as surviving fraction at 0.22 uM under LED array light by MTT assay; format: functional
[6] = system: HeLa; assay: Phototoxicity against human HeLa cells assessed as surviving fraction at 0.25 uM irradiated with 9.15 mW/cm'2 light for 10 mins by MTT assay; format: functional
[7] = system: HaCaT; assay: Induction of apoptosis in human HaCaT cells assessed as intracellular localization at 0.25 uM with 9.15 mW/cm'2 light for; format: functional, cell-based; conditions: TDE = time-dependent effect
[8] = system: HeLa; assay: Phototoxicity against human HeLa cells assessed as surviving fraction at 0.61 uM under LED array light; format: functional
[9] = system: HaCaT; assay: Phototoxicity against human HaCaT cells assessed as surviving fraction at 2.4 uM under LED array light; format: functional
[10] = system: HaCaT; assay: Phototoxicity against human HaCaT cells assessed as surviving fraction at 1.2 uM under LED array light; format: functional
[11] = system: HeLa; assay: Phototoxicity against human HeLa cells assessed as surviving fraction at 1.2 uM under LED array light; format: functional
[12] = system: HeLa; assay: Phototoxicity against human HeLa cells assessed as surviving fraction at 0.22 uM under LED array light; format: functional
[13] = system: HaCaT; assay: Phototoxicity against human HaCaT cells assessed as surviving fraction at 0.25 uM irradiated with 9.15 mW/cm'2 light for 10 mins by MTT assay; format: functional
[14] = system: HaCaT; assay: Phototoxicity against human HaCaT cells assessed as surviving fraction at 0.25 uM irradiated with 9.15 mW/cm'2 light for 20 mins by MTT assay; format: functional
[15] = system: HaCaT; assay: Phototoxicity against human HaCaT cells assessed as surviving fraction at 0.25 uM irradiated with 9.15 mW/cm'2 light for 5 mins by MTT assay; format: functional
[16] = system: HaCaT; assay: Induction of apoptosis in human HaCaT cells assessed as change in cellular morphology after irradiation with 9.15 mW/cm'2 light; format: functional, cell-based
[17] = system: HeLa; assay: Phototoxicity against human HeLa cells assessed as surviving fraction at 0.25 uM irradiated with 9.15 mW/cm'2 light for 20 mins by MTT assay; format: functional
[18] = Photostability of the compound irradiated with 9.15 mW/cm'2 white light; format: physicochemical
[19] = system: HaCaT; assay: Phototoxicity against human HaCaT cells assessed as surviving fraction at 0.61 uM under LED array light by MTT assay; format: functional
[20] = system: HeLa; assay: Phototoxicity against human HeLa cells assessed as survival at 0.25 uM irradiated with 9.15 mW/cm'2 light for 10 mins by MTT assay
[21] = system: HeLa; assay: Phototoxicity against human HeLa cells assessed as surviving fraction at 0.3 uM irradiated with 9.15 mW/cm'2 light for 15 mins by MTT assay; format: functional
[22] = system: HeLa; assay: Induction of apoptosis in human HeLa cells assessed as intracellular localization at 0.25 uM with 9.15 mW/cm'2 light for; format: functional, cell-based; conditions: TDE = time-dependent effect
[23] = system: HaCaT; assay: Phototoxicity against human HaCaT cells assessed as surviving fraction at 0.3 uM irradiated with 9.15 mW/cm'2 light for 5 mins by MTT assay; format: functional
[24] = system: HaCaT; assay: Induction of apoptosis in human HaCaT cells assessed as intracellular localization at 0.3 uM with 9.15 mW/cm'2 light for; format: functional, cell-based; conditions: TDE = time-dependent effect
[25] = system: HeLa; assay: Phototoxicity against human HeLa cells assessed as surviving fraction at 0.3 uM irradiated with 9.15 mW/cm'2 light for 5 mins by MTT assay; format: functional
[26] = system: HeLa; assay: Phototoxicity against human HeLa cells assessed as surviving fraction at 0.3 uM irradiated with 9.15 mW/cm'2 light for 10 mins by MTT assay; format: functional
[27] = system: HaCaT; assay: Induction of apoptosis in human HaCaT cells assessed as change in loss of adheshin after irradiation with 9.15 mW/cm'2 light for 10 mins; format: functional, cell-based
[28] = system: HaCaT; assay: Phototoxicity against human HaCaT cells assessed as surviving fraction at 0.3 uM irradiated with 9.15 mW/cm'2 light for 10 mins by MTT assay; format: functional
[29] = system: HaCaT; assay: Induction of apoptosis in human HaCaT cells assessed as change in cytoplasmic vacuolization after irradiation with 9.15 mW/cm'2 light for 10 mins; format: functional, cell-based
[30] = system: HaCaT; assay: Phototoxicity against human HaCaT cells assessed as surviving fraction at 0.3 uM irradiated with 9.15 mW/cm'2 light for 15 mins by MTT assay; format: functional
[31] = system: HaCaT; assay: Induction of apoptosis in human HaCaT cells assessed as change in loss of basophilia after irradiation with 9.15 mW/cm'2 light for 10 mins; format: functional, cell-based
[32] = system: HeLa; assay: Phototoxicity against human HeLa cells assessed as survival at 0.3 uM irradiated with 9.15 mW/cm'2 light for 10 mins by MTT assay
[33] = system: HaCaT; assay: Phototoxicity against human HaCaT cells assessed as surviving fraction at 1.2 uM irradiated with 9.15 mW/cm'2 light for 20 mins by MTT assay; format: functional
[34] = system: HaCaT; assay: Induction of apoptosis in human HaCaT cells assessed as intracellular localization at 1.2 uM with 9.15 mW/cm'2 light for; format: functional, cell-based; conditions: TDE = time-dependent effect
[35] = system: HaCaT; assay: Phototoxicity against human HaCaT cells assessed as surviving fraction at 1.2 uM irradiated with 9.15 mW/cm'2 light for 10 mins by MTT assay; format: functional
[36] = system: HeLa; assay: Phototoxicity against human HeLa cells assessed as surviving fraction at 1.2 uM irradiated with 9.15 mW/cm'2 light for 10 mins by MTT assay; format: functional
[37] = system: HeLa; assay: Phototoxicity against human HeLa cells assessed as surviving fraction at 1.2 uM irradiated with 9.15 mW/cm'2 light for 5 mins by MTT assay; format: functional
[38] = system: HeLa; assay: Phototoxicity against human HeLa cells assessed as surviving fraction at 1.2 uM irradiated with 9.15 mW/cm'2 light for 20 mins by MTT assay; format: functional
[39] = system: HeLa; assay: Phototoxicity against human HeLa cells assessed as survival at 1.2 uM irradiated with 9.15 mW/cm'2 light for 10 mins by MTT assay
[40] = Induction of singlet oxygen production at 1 uM after irradiation at 10 mW/cm'2 in presence of 1,3-diphenylisobenzofuran; format: physicochemical

Row | Structure (SMILES) | Activity [1] [%] | Activity [2] [%] | Activity [3] [%] | Activity [5] [%] | Activity [8] [%] | Activity [9] [%] | Activity [10] [%] | Activity [11] [%] | Activity [12] [%] | Activity [16] | Activity [19] [%] | Activity [22] | also measured
1 | COC(=O)CNC(=O)c1ccc(-c2c3nc(c(-c4cccc(OC)c4)c4ccc([nH]4)c(-c4cccc(OC)c4)c4nc(c(-c5cccc(OC)c5)c5ccc2[nH]5)C=C4)C=C3)cc1 | 60.42 | 24.3 | 104.89 | 94.98 | 110.38 | 109.91 | 102.19 | 106.97 | 107.31 | Active | 97.96 |  | Activity [4]: 3.74%; Activity [6]: 1.13%; Activity [7]: tde; Activity [13]: 50.96%; Activity [14]: 22.11%; Activity [15]: 82.69%; Activity [17]: 1.32%; Stability [18]: Stable; Survival [20]: 50.96%
2 | COC(=O)C(CC[S+](C)[O-])NC(=O)c1ccc(-c2c3nc(c(-c4cccc(OC)c4)c4ccc([nH]4)c(-c4cccc(OC)c4)c4nc(c(-c5cccc(OC)c5)c5ccc2[nH]5)C=C4)C=C3)cc1 (configuration not stated) | 16.93 | 16.9 | 93.5 | 99.2 | 92.61 | 101.3 | 103.4 | 95.69 | 93.26 |  | 101.5 | tde | Activity [21]: 10.93%; Activity [23]: 76.87%; Activity [24]: tde; Activity [25]: 56.87%; Activity [26]: 14.23%; Activity [27]: Active; Activity [28]: 53.02%; Activity [29]: Active; Activity [30]: 28.2%; Activity [31]: Active; Survival [32]: 53.02%
3 | COC(=O)C(CO)NC(=O)c1ccc(-c2c3nc(c(-c4cccc(OC)c4)c4ccc([nH]4)c(-c4cccc(OC)c4)c4nc(c(-c5cccc(OC)c5)c5ccc2[nH]5)C=C4)C=C3)cc1 (configuration not stated) | 67.33 | 96.98 | 91.48 | 101.49 | 100.28 | 97.54 | 102.65 | 102.78 | 102.58 | Active | 104.72 | tde | Activity [33]: 22.54%; Activity [34]: tde; Activity [35]: 42.75%; Activity [36]: 0%; Activity [37]: 8%; Activity [38]: 0%; Survival [39]: 42.75%; Activity [40]: Active
